Data as given in US10544130B2, “Metallo-beta-lactamase inhibitors” (priority 2015, dated 2020).
Structures can show the parent of a compound that is named as a salt. Where two headings read alike, the source gives them in different places.

Assays:
[1] = tested on: Escherichia coli expressing NDM-1 (CLB30005, CLB30016); assay type: cell-based; details: with imipenem 1 μg/ml; 95% inhibition of bacterial growth
Outline: (§1)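 Growth read by absorbance after 22–24 h at 35 °C in CAMHB, with test compound alone or combined with 1 μg/ml imipenem. Inocula came from overnight 35 °C blood-agar colonies, set to a defined OD600 and diluted 1:100. Value is the inhibitor concentration giving synergy.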

[2] = tested on: Klebsiella pneumoniae expressing VIM-1 (IHMA599644); assay type: cell-based; details: with imipenem 1 μg/ml; 95% inhibition of bacterial growth
Outline: as §1

[3] = tested on: Serratia marcescens expressing IMP-1 (CL5741); assay type: cell-based; details: with imipenem 1 μg/ml; 95% inhibition of bacterial growth
Outline: as §1

[4] = tested on: Pseudomonas aeruginosa PAO1 MB9798 (efflux+, IMP-1); details: imipenem at 2 μg/mL
Outline: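 Isogenic PAO1 pair (efflux+ MB9798, efflux− MB9799, both IMP-1) tested by microbroth MIC with fixed imipenem and/or ceftazidime, usually at CLSI breakpoint, plus fixed class A/C inhibitor against AmpC. MBL inhibitor titrated; concentration restoring susceptibility recorded and fold difference between strains taken as efflux extent.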

[5] = ratio MITC95 PA 9798/MITC95 PA 9799
[6] = fold difference between efflux + (MB9798) and efflux − (MB9799) strains

Structure (SMILES) | Escherichia coli (NDM-1) MITC95 [1] [µM] | Klebsiella pneumoniae (VIM-1) MITC95 [2] [µM] | Serratia marcescens (IMP-1) MITC95 [3] [µM] | Efflux ratio [4, 5] | Efflux ratio [4, 6]
NC[C@H]1CCN(S(=O)(=O)c2ccc(-c3cccc4[nH]c(N)nc34)c(-c3nn[nH]n3)c2S(N)(=O)=O)C1 [Example 253, (R)-3-(2-amino-1H-benzo[d]imidazol-4-yl)-6-((3-(aminomethyl)pyrrolidin-1-yl)sulfonyl)-2-(2H-tetrazol-5-yl)benzenesulfonamide] | 1.563 | 1.563 | 0.7813 |  | 
NCC(=O)NC1C=C(c2ccc(S(=O)(=O)N[C@@H]3CCNC3)c(S(N)(=O)=O)c2-c2nn[nH]n2)CCC1 (stereo partly drawn) [Example 269, 2-Amino-N-(4′-(N—((R)-pyrrolidin-3-yl)sulfamoyl)-3′-sulfamoyl-2′-(2H-tetrazol-5-yl)-3,4,5,6-tetrahydro-[1,1′-biphenyl]-3-yl)acetamide] | 1.563 | 3.125 | 1.563 |  | 
Cn1nnc2c(-c3ccc(S(=O)(=O)N[C@H]4CCNC4)c(S(N)(=O)=O)c3-c3nn[nH]n3)cccc21 [Example 293, (S)-4-(1-methyl-1H-benzo[d][1,2,3]triazol-4-yl)-N1-(pyrrolidin-3-yl)-3-(2H-tetrazol-5-yl)benzene-1,2-disulfonamide] | 3.125 | 3.125 | 3.125 |  | 
N[C@@H]1CNC[C@@H]1NS(=O)(=O)c1ccc(-c2cnc3cc[nH]c3c2)c(-c2nn[nH]n2)c1S(N)(=O)=O [Example 326, N1-((3S,4R)-4-aminopyrrolidin-3-yl)-4-(1H-pyrrolo[3,2-b]pyridin-6-yl)-3-(2H-tetrazol-5-yl)benzene-1,2-disulfonamide] |  | 1.563 | 1.563 | 1.00 | 
NCCNC(=O)c1cccc(-c2ccc(S(=O)(=O)NCCN)c(S(N)(=O)=O)c2-c2nn[nH]n2)c1 [Example 334, N-(2-aminoethyl)-4′-(N-(2-aminoethyl)sulfamoyl)-3′-sulfamoyl-2′-(2H-tetrazol-5-yl)-[1,1′-biphenyl]-3-carboxamide] |  | 0.7813 | 0.7813 | 2.00 | 
NCCNS(=O)(=O)c1ccc(-c2cccc(C(=O)N[C@@H]3CNC[C@H]3O)c2)c(-c2nn[nH]n2)c1S(N)(=O)=O [Example 344, 4′-(N-(2-aminoethyl)sulfamoyl)-N-((3R,4R)-4-hydroxypyrrolidin-3-yl)-3′-sulfamoyl-2′-(2H-tetrazol-5-yl)-[1,1′-biphenyl]-3-carboxamide] | 0.7813 | 1.563 | 1.563 |  | 
NCCNS(=O)(=O)c1ccc(-c2cccc3sc(CN)nc23)c(-c2nn[nH]n2)c1S(N)(=O)=O [Example 345, N^1-(2-aminoethyl)-4-(2-(aminomethyl)benzo[d]thiazol-4-yl)-3-(2H-tetrazol-5-yl)benzene-1,2-disulfonamide] |  | 0.7813 | 0.7813 | 1.00 | 
NCCNS(=O)(=O)c1ccc(-c2cccc(-c3c[nH]c(N)n3)c2)c(-c2nn[nH]n2)c1S(N)(=O)=O [Example 353, 3′-(2-amino-1H-imidazol-4-yl)-N4-(2-aminoethyl)-2-(2H-tetrazol-5-yl)-[1,1′-biphenyl]-3,4-disulfonamide] |  | 1.563 | 0.7813 | 2.00 | 
NCc1nc2c(-c3ccc(S(=O)(=O)N[C@H](CN)CO)c(S(N)(=O)=O)c3-c3nn[nH]n3)cccc2s1 [Example 363, (R)—N1-(1-amino-3-hydroxypropan-2-yl)-4-(2-(aminomethyl)benzo[d]thiazol-4-yl)-3-(2H-tetrazol-5-yl)benzene-1,2-disulfonamide] | 3.125 | 3.125 |  | 4.00 | 
NC[C@H](N)CNS(=O)(=O)c1ccc(-c2cnc3cc[nH]c3c2)c(-c2nn[nH]n2)c1S(N)(=O)=O [Example 373, (S)-N1-(2,3-diaminopropyl)-4-(1H-pyrrolo[3,2-b]pyridin-6-yl)-3-(2H-tetrazol-5-yl)benzene-1,2-disulfonamide] |  | 3.125 | 1.563 | 1.00 | 
NC[C@@H](N)CNS(=O)(=O)c1ccc(-c2cccc3[nH]c(N)nc23)c(-c2nn[nH]n2)c1S(N)(=O)=O [Example 375, (R)-4-(2-amino-1H-benzo[d]imidazol-4-yl)-N1-(2,3-diaminopropyl)-3-(2H-tetrazol-5-yl)benzene-1,2-disulfonamide] |  | 1.563 | 1.563 | 1.00 | 
NC[C@@H](CO)NS(=O)(=O)c1ccc(-c2ccnc(N)c2)c(-c2nn[nH]n2)c1S(N)(=O)=O [Example 380, (S)—N1-(1-amino-3-hydroxypropan-2-yl)-4-(2-aminopyridin-4-yl)-3-(2H-tetrazol-5-yl)benzene-1,2-disulfonamide] |  | 1.563 | 0.7813 | 1.00 | 
C[C@@H](N)CNS(=O)(=O)c1ccc(-c2cccc3sc(N)nc23)c(-c2nn[nH]n2)c1S(N)(=O)=O [Example 390, 4-(2-amino-1,3-benzothiazol-4-yl)-N^1-[(2R)-2-aminopropyl]-3-(2H-tetrazol-5-yl)benzene-1,2-disulfonamide] | 3.125 | 3.125 | 1.563 |  | 
Nc1nc2c(-c3ccc(S(=O)(=O)N[C@H]4CCNC4)c(S(N)(=O)=O)c3-c3nn[nH]n3)cc(F)cc2[nH]1 [Example 399, (S)-4-(2-amino-6-fluoro-1H-benzo[d]imidazol-4-yl)-N^1-(pyrrolidin-3-yl)-3-(2H-tetrazol-5-yl)benzene-1,2-disulfonamide] | 0.7813 | 1.563 | 1.563 |  | 
NCCNS(=O)(=O)c1ccc(-c2ccc3nccn3c2)c(-c2nn[nH]n2)c1S(N)(=O)=O [Example 401, N^1-(2-aminoethyl)-4-(imidazo[1,2-a]pyridin-6-yl)-3-(2H-tetrazol-5-yl)benzene-1,2-disulfonamide] | 0.7813 | 1.563 |  |  | 
NC[C@@H](O)CNS(=O)(=O)c1ccc(-c2ccnc(N)c2)c(-c2nn[nH]n2)c1S(N)(=O)=O [Example 419, (R)-N^1-(3-amino-2-hydroxypropyl)-4-(2-aminopyridin-4-yl)-3-(2H-tetrazol-5-yl)benzene-1,2-disulfonamide] | 0.1953 | 1.563 | 0.7813 |  | 
Nc1nc2c(-c3ccc(S(=O)(=O)N[C@@H]4CNC[C@H]4N)c(S(N)(=O)=O)c3-c3nn[nH]n3)cccc2[nH]1 [Example 424, 4-(2-amino-1H-benzo[d]imidazol-4-yl)-N^1-((3R,4R)-4-aminopyrrolidin-3-yl)-3-(2H-tetrazol-5-yl)benzene-1,2-disulfonamide] | 0.7813 | 1.563 | 1.563 |  | 
NCCNCc1sc(N)nc1-c1cccc(-c2ccc(S(=O)(=O)N[C@@H]3CCNC3)c(S(N)(=O)=O)c2-c2nnn[nH]2)c1 [Example 433, (R)-3′-(2-amino-5-(((2-aminoethyl)amino)methyl)thiazol-4-yl)-N^4-(pyrrolidin-3-yl)-2-(1H-tetrazol-5-yl)-[1,1′-biphenyl]-3,4-disulfonamide] | 0.7813 | 1.563 | 1.563 |  | 
NC[C@]1(NS(=O)(=O)c2ccc(-c3ccc(N)nc3)c(-c3nn[nH]n3)c2S(N)(=O)=O)CCNC1 [Example 486, (R)-N1-(3-(aminomethyl)pyrrolidin-3-yl)-4-(6-aminopyridin-3-yl)-3-(2H-tetrazol-5-yl)benzene-1,2-disulfonamide dihydrochloride] | 0.7813 | 1.563 |  |  | 2.00
NC[C@@]1(NS(=O)(=O)c2ccc(-c3ccc(N)nc3)c(-c3nn[nH]n3)c2S(N)(=O)=O)CCNC1 [Example 487, (S)-N1-(3-(aminomethyl)pyrrolidin-3-yl)-4-(6-aminopyridin-3-yl)-3-(2H-tetrazol-5-yl)benzene-1,2-disulfonamide dihydrochloride] |  | 1.563 | 0.7813 |  | 1.00
